Assays:
Assay in all cases: radiometric filter-binding kinase assay, Kinase HotSpot
Details in all cases: compound 0.5 µM; ATP 10 µM
[1] = target: BTK (human) (UniProt Q06187)
[2] = target: MAP3K5 (human) (UniProt Q99683)
[3] = target: RPS6KA3 KD1 KD2 (human) (UniProt P51812)
[4] = target: DYRK1B (human) (UniProt Q9Y463)
[5] = target: HIPK3 (human) (UniProt Q9H422)
[6] = target: VRK1 (human) (UniProt Q99986)
[7] = target: PIM1 (human) (UniProt P11309)
[8] = target: RPS6KB1 (human) (UniProt P23443)
[9] = target: DAPK3 (human) (UniProt O43293)
[10] = target: CHEK2 (human) (UniProt O96017)
[11] = target: MAPK11 (human) (UniProt Q15759)
[12] = target: PRKD3 (human) (UniProt O94806)
[13] = target: ADRBK2 (human) (UniProt P35626)
[14] = target: DSTYK (human) (UniProt Q6XUX3)
[15] = target: MAP3K14 (human) (UniProt Q99558)
[16] = target: CDC42BPA (human) (UniProt Q5VT25)
[17] = target: RPS6KA4 KD2 (human) (UniProt O75676)
[18] = target: CDK1 CCNB1 (human) (UniProt P06493+P14635)
[19] = target: CSNK1G1 (human) (UniProt Q9HCP0)
[20] = target: PAK3 (human) (UniProt O75914)
[21] = target: CAMK2G (human) (UniProt Q13555)
[22] = target: EPHA2 (human) (UniProt P29317)
[23] = target: PTK2B (human) (UniProt Q14289)
[24] = target: CAMKK1 (human) (UniProt Q8N5S9)
[25] = target: MAPK10 (human) (UniProt P53779)
[26] = target: ITK (human) (UniProt Q08881)
[27] = target: EPHA5 (human) (UniProt P54756)
[28] = target: MAP4K4 (human) (UniProt O95819)
[29] = target: FGFR3 (human) (UniProt P22607)
[30] = target: ACVR1B (human) (UniProt P36896)
[31] = target: PIM2 (human) (UniProt Q9P1W9)
[32] = target: MET (human) (UniProt P08581)
[33] = target: MAP3K7 TAB1 (human) (UniProt O43318+Q15750)
[34] = target: MAP3K2 (human) (UniProt Q9Y2U5)
[35] = target: STK25 (human) (UniProt O00506)
[36] = target: YES1 (human) (UniProt P07947)
[37] = target: AKT3 (human) (UniProt Q9Y243)
[38] = target: TXK (human) (UniProt P42681)
[39] = target: TNK2 (human) (UniProt Q07912)
[40] = target: NTRK1 (human) (UniProt P04629)
[41] = target: PRKCB1 (human) (UniProt P05771)
[42] = target: PRKCD (human) (UniProt Q05655)
Sequence of PRKCD (human) (Q05655 whole entry, looked up): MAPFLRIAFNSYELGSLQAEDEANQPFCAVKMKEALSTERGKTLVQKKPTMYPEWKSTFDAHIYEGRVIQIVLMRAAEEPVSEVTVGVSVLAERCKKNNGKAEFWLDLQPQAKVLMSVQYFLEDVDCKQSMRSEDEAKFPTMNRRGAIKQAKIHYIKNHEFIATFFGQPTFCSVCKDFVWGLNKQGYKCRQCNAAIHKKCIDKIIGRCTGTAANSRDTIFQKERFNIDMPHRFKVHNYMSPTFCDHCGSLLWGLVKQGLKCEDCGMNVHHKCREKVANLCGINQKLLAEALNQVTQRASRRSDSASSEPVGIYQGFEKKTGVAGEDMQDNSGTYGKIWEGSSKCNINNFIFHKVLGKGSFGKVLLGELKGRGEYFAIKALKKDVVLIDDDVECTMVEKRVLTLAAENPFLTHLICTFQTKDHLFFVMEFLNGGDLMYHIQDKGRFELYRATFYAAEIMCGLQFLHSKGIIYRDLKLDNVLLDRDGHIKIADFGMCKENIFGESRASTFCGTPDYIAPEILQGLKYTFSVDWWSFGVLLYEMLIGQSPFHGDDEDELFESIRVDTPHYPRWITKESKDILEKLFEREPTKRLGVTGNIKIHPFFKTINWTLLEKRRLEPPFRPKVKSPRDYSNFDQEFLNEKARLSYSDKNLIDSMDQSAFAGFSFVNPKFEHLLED

Sequence of DSTYK (human) (Q6XUX3 whole entry, looked up): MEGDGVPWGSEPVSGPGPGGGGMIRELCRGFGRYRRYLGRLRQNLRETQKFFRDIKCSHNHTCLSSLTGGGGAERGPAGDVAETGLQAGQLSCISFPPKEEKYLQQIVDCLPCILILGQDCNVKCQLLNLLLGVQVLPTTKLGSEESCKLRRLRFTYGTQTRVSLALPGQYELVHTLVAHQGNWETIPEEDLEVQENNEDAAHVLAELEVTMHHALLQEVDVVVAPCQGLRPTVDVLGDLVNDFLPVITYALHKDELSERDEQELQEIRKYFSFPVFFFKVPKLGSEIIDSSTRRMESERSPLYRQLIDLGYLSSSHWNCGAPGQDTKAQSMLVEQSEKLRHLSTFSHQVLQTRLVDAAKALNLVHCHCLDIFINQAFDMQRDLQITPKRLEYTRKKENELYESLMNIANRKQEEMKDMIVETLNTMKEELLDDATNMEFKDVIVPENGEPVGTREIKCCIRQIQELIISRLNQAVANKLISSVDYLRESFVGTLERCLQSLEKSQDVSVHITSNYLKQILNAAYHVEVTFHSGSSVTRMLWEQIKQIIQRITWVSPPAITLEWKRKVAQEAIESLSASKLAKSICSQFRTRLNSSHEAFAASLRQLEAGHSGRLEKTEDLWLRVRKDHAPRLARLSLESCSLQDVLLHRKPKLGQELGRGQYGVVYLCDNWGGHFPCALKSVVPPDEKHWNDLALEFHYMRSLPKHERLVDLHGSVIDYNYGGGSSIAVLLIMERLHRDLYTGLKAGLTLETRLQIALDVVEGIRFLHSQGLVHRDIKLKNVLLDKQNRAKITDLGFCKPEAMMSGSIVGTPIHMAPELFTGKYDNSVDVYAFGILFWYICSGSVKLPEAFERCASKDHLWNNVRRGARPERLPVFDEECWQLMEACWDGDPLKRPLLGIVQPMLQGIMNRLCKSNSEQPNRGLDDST
Sequence of PAK3 (human) (O75914 whole entry, looked up): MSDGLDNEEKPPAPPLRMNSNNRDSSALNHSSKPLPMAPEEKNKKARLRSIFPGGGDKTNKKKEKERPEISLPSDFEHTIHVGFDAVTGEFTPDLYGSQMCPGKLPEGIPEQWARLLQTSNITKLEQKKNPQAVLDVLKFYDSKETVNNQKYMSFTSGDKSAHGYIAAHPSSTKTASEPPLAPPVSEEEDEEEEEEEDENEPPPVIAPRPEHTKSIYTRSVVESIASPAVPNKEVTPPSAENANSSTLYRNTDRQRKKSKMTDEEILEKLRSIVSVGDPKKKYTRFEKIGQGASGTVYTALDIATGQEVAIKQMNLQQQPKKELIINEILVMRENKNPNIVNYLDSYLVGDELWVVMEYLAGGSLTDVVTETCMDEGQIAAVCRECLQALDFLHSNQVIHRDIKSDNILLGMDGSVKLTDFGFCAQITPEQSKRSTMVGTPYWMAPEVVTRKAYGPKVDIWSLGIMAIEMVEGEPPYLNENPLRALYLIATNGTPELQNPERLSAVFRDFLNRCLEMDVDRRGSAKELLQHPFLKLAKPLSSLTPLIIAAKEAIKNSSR
Sequence of RPS6KA4 KD2 (human) (O75676 whole entry, looked up): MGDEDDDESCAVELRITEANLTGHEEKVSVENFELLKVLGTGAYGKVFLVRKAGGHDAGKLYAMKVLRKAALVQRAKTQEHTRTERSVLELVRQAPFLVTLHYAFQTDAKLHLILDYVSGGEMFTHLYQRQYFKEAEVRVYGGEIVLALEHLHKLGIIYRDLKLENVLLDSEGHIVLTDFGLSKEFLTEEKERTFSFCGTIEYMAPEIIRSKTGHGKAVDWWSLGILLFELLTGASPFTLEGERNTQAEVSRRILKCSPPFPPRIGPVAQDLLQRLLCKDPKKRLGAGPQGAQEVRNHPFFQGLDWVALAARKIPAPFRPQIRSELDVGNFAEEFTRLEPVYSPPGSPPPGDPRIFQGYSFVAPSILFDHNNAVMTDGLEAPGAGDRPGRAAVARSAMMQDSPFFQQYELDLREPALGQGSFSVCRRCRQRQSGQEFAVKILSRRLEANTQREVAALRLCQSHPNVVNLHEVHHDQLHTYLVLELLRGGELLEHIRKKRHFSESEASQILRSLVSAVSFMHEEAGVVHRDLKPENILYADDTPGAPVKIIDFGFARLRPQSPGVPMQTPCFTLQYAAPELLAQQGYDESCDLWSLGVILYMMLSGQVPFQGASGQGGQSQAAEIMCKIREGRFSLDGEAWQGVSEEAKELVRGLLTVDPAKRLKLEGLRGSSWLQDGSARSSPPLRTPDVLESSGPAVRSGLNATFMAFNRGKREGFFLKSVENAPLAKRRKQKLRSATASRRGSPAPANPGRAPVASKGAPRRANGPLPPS
Sequence of PIM1 (human) (P11309 whole entry, looked up): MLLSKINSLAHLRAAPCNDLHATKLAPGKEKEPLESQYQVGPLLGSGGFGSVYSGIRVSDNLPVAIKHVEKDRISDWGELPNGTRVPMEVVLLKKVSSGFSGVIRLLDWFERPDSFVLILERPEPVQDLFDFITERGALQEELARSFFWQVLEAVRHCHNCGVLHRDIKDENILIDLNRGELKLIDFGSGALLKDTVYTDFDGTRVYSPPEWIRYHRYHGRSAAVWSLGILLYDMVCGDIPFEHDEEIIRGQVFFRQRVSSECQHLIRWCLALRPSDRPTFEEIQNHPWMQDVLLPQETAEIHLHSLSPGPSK
Sequence of PRKD3 (human) (O94806 whole entry, looked up): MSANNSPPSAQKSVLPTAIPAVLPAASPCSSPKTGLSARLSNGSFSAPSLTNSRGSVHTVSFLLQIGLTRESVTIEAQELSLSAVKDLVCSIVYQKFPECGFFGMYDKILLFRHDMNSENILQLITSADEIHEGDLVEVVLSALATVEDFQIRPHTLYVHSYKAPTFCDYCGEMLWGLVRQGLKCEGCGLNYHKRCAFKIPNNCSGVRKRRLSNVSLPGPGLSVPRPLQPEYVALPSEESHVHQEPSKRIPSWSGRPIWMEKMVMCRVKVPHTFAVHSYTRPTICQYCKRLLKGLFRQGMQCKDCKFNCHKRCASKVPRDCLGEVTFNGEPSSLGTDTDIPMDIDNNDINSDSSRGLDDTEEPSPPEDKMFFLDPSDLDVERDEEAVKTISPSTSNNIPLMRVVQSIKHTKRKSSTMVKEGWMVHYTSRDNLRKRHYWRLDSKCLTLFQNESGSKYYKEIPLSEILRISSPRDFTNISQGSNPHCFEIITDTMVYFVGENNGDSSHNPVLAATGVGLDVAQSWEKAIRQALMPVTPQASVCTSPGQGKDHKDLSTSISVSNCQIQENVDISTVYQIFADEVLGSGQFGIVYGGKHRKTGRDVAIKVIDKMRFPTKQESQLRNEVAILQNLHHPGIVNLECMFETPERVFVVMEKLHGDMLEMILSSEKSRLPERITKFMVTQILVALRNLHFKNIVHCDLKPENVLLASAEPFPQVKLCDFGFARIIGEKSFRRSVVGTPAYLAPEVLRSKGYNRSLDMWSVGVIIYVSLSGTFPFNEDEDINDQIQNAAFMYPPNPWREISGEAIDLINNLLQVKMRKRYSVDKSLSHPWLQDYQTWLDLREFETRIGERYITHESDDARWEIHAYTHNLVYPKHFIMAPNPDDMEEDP
Sequence of MAPK10 (human) (P53779 whole entry, looked up): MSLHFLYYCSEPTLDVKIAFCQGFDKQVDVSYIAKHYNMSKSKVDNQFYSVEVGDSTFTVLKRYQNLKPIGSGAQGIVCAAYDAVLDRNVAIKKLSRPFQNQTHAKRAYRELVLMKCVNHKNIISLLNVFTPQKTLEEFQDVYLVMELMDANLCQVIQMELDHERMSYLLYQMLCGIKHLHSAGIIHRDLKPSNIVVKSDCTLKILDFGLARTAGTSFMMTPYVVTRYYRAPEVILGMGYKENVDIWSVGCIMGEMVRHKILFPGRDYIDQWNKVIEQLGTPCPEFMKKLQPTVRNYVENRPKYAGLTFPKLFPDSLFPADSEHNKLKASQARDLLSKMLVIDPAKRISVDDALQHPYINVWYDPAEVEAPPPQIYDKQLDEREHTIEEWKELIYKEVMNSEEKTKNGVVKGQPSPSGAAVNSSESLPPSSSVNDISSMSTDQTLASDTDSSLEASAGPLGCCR
Sequence of MAPK11 (human) (Q15759 whole entry, looked up): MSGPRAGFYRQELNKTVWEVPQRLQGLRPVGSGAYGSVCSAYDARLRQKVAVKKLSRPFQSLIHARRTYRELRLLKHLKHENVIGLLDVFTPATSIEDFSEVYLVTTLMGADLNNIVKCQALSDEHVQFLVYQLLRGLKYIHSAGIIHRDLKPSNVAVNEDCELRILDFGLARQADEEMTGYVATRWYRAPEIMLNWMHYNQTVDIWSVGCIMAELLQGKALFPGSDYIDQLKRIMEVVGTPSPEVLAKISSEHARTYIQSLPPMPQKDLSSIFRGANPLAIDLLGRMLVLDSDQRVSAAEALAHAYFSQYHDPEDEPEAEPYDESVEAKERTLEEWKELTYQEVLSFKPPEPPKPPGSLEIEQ

Work on Clc1ccc(Nc2nnc(Cc3ccncc3)c3ccccc23)cc1 yielded a residual activity [1] of 95.4%, a residual activity [2] of 101% and a residual activity [3] of 101%. For the same compound, the residual activity [4] was 109%, the residual activity [5] was 96.5% and the residual activity [6] was 109%. For the same compound, the residual activity [7] was 102%, the residual activity [8] was 102% and the residual activity [9] was 107%. For the same compound, the residual activity [10] was 98.5%, the residual activity [11] was 96.9% and the residual activity [12] was 94.7%. The residual activity [13] was 92.9%, the residual activity [14] was 96.5% and the residual activity [15] was 126%. The residual activity [16] was 78.3%, the residual activity [17] was 98% and the residual activity [18] was 104%. It also gave a residual activity [19] of 103%, a residual activity [20] of 107% and a residual activity [21] of 115%. For the same compound, the residual activity [22] was 92.5%, the residual activity [23] was 102% and the residual activity [24] was 97.2%. The residual activity [25] was 116%, the residual activity [26] was 103% and the residual activity [27] was 109%. For the same compound, the residual activity [28] was 107%, the residual activity [29] was 91.5% and the residual activity [30] was 108%. For the same compound, the residual activity [31] was 95.8%, the residual activity [32] was 94% and the residual activity [33] was 99.6%. For the same compound, the residual activity [34] was 126%, the residual activity [35] was 94% and the residual activity [36] was 93%. For the same compound, the residual activity [37] was 89.9%, the residual activity [38] was 110% and the residual activity [39] was 91.7%. It also gave a residual activity [40] of 98.7%, a residual activity [41] of 83.5% and a residual activity [42] of 97.4%.
